Data: the NIST ThermoML archive (doi:10.1016/j.jct.2010.08.016)

What was measured:
[1] = refractive index (Na D-line) (dimensionless); xn = mol fraction of the nth substance listed; settings: 101 kPa, Liquid, Standard Abbe refractometry
[2] = xn = mol fraction of the nth substance listed; settings: 101 kPa, Liquid; for electrical conductivity: Alternating current cell with electrodes; for mass density: Vibrating tube method

NC(CO)(CO)CO [2-amino-2-(hydroxymethyl)-1,3-propanediol] + O
Settings	electrical conductivity, [2] [S/m]	mass density, [2] [kg/m3]	refractive index, [1]
293.15 K, x1 = 0.01	0.0158	1022.2	1.34226
293.15 K, x1 = 0.02	0.0179	1036.6	1.35089
293.15 K, x1 = 0.03	0.0189	1049.4	1.35884
293.15 K, x1 = 0.04	0.0193	1056.4	1.37118
293.15 K, x1 = 0.05	0.0205	1073.8	1.37635
293.15 K, x1 = 0.06	0.0205	1079.9	1.3797
293.15 K, x1 = 0.07	0.018	1090	1.38587
298.15 K, x1 = 0.01	–	–	1.34173
298.15 K, x1 = 0.02	–	–	1.35029
298.15 K, x1 = 0.03	–	–	1.35819
298.15 K, x1 = 0.04	–	–	1.37048
298.15 K, x1 = 0.05	–	–	1.37565
298.15 K, x1 = 0.06	–	–	1.37896
298.15 K, x1 = 0.07	–	–	1.38509
303.15 K, x1 = 0.01	0.0195	1019.5	1.34111
303.15 K, x1 = 0.02	0.0229	1033.6	1.34961
303.15 K, x1 = 0.03	0.0247	1046.2	1.35746
303.15 K, x1 = 0.04	0.0253	1053.3	1.3697
303.15 K, x1 = 0.05	0.0271	1070.3	1.37485
303.15 K, x1 = 0.06	0.0271	1076.2	1.37816
303.15 K, x1 = 0.07	0.0235	1086.3	1.38425
308.15 K, x1 = 0.01	–	–	1.34042
308.15 K, x1 = 0.02	–	–	1.34889
308.15 K, x1 = 0.03	–	–	1.35667
308.15 K, x1 = 0.04	–	–	1.36888
308.15 K, x1 = 0.05	–	–	1.37406
308.15 K, x1 = 0.06	–	–	1.37728
308.15 K, x1 = 0.07	–	–	1.38334
313.15 K, x1 = 0.01	0.0241	1016	1.33972
313.15 K, x1 = 0.02	0.0287	1029.9	1.34821
313.15 K, x1 = 0.03	0.031	1042.4	1.35596
313.15 K, x1 = 0.04	0.0318	1049.3	1.36815
313.15 K, x1 = 0.05	0.0341	1066.1	1.37347
313.15 K, x1 = 0.06	0.0341	1071.8	1.37673
313.15 K, x1 = 0.07	0.03	1081.8	1.38271
318.15 K, x1 = 0.01	–	–	1.33899
318.15 K, x1 = 0.02	–	–	1.34742
318.15 K, x1 = 0.03	–	–	1.3552
318.15 K, x1 = 0.04	–	–	1.36739
318.15 K, x1 = 0.05	–	–	1.37247
318.15 K, x1 = 0.06	–	–	1.37581
318.15 K, x1 = 0.07	–	–	1.38182
323.15 K, x1 = 0.01	0.0287	1011.6	1.3381
323.15 K, x1 = 0.02	0.0346	1025.5	1.34668
323.15 K, x1 = 0.03	0.0373	1037.8	1.35447
323.15 K, x1 = 0.04	0.0385	1044.7	1.36673
323.15 K, x1 = 0.05	0.0411	1061.3	1.37176
323.15 K, x1 = 0.06	0.0411	1067	1.37507
323.15 K, x1 = 0.07	0.0367	1076.9	1.38124
328.15 K, x1 = 0.01	–	–	1.33723
328.15 K, x1 = 0.02	–	–	1.34603
328.15 K, x1 = 0.03	–	–	1.35389
328.15 K, x1 = 0.04	–	–	1.36626
328.15 K, x1 = 0.05	–	–	1.37115
328.15 K, x1 = 0.06	–	–	1.37453
328.15 K, x1 = 0.07	–	–	1.38089
333.15 K, x1 = 0.01	0.0333	1006	–
333.15 K, x1 = 0.02	0.0403	1020	–
333.15 K, x1 = 0.03	0.0435	1032.7	–
333.15 K, x1 = 0.04	0.0452	1039.6	–
333.15 K, x1 = 0.05	0.0482	1056	–
333.15 K, x1 = 0.06	0.0482	1061.7	–
333.15 K, x1 = 0.07	0.0435	1071.4	–
343.15 K, x1 = 0.01	0.0378	998.9	–
343.15 K, x1 = 0.02	0.046	1013.2	–
343.15 K, x1 = 0.03	0.0497	1027	–
343.15 K, x1 = 0.04	0.0518	1033.9	–
343.15 K, x1 = 0.05	0.0552	1050.2	–
343.15 K, x1 = 0.06	0.0552	1055.9	–
343.15 K, x1 = 0.07	0.0503	1065.6	–
353.15 K, x1 = 0.01	0.0423	989.9	–
353.15 K, x1 = 0.02	0.0514	1004.9	–
353.15 K, x1 = 0.03	0.0555	1020.8	–
353.15 K, x1 = 0.04	0.0579	1027.6	–
353.15 K, x1 = 0.05	0.0619	1044	–
353.15 K, x1 = 0.06	0.0619	1049.5	–
353.15 K, x1 = 0.07	0.0567	1059.2	–
